Test in all cases: NCI anticancer screen, dose series, 48 h
Assay [1] relates to ACHN renal.
Assay [2] concerns CAKI-1 renal.
Assay [3] concerns DU-145 prostate.
The test system of assay [4] is HS 578T breast.
Assay [5] has as its system MOLT-4 leukemia.
The subject of assay [6] is NCI/ADR-RES ovarian.
In assay [7] the test system is OVCAR-3 ovarian.
The test system of assay [8] is OVCAR-4 ovarian.
Assay [9] deals with SN12C renal.
For assay [10], the system named is U251 CNS.

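Five compound concentrations were applied to cells in 96-well plates for 48 hours; endpoints were derived by simple linear interpolation of the resulting dose-response curve. GI50 marks 50% less growth. TGI is the concentration that stops growth completely.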

Turning to `CCC(c1ccc(OC)cc1)C(CC)c1ccc(O)c(CN2CCN(C)CC2)c1` (stereo not given), the GI50 in assay [1] is 9.99 µM; in assay [2], 2.61 µM; in assay [3] it was 11.3 µM; in [4], 3.08 µM; in [5], 6.01 µM; in assay [6], 5.51 µM. For the same compound, the GI50 in assay [7] is 4.1 µM; in [8], 7.22 µM; in assay [9], 5.7 µM; in [10], 2.73 µM. The TGI in assay [1] came out at 22.9 µM; in assay [2], 10.6 µM; in [3], 24.1 µM; in [4], 9.56 µM; in [5], 20.4 µM; in assay [6] it was 20.6 µM. For the same compound, the TGI in assay [7] was 14.3 µM; in assay [8], 22.4 µM; in assay [9] it was 20.9 µM; in [10], 12.2 µM.

As to `COc1ccc(S(=O)(=O)NC2=NCCN2C(=S)SN2CCn3c2nsc3=S)cc1`, the GI50 in [1] is 12.9 µM; in [2] it was 17.9 µM; in assay [3] it was 13.5 µM; in assay [4] it was 20.8 µM; in assay [5] it was 29.4 µM; in [6] it was 32.5 µM. The GI50 in assay [7] was 15.5 µM; in assay [8] it was 18 µM; in assay [9] it was 18.2 µM; in assay [10], 18.8 µM. Moreover, the TGI was 26 µM in assay [1]; 62.8 µM in [2]; 31.9 µM in assay [3]; 54.2 µM in [4]; > 100 µM in assay [5]; > 100 µM in assay [6]. Also, the TGI came out at 37.4 µM in [7], 44.7 µM in [8], 40 µM in assay [9] and 40.5 µM in assay [10].

In the case of `CC(=O)OC1=CC2=CC[C@H]3[C@@H]4CCC(=O)[C@@]4(C)CC(=O)[C@]3(S)[C@@]2(C)CC1`, the TGI in [1] was > 100 µM; in assay [2], > 100 µM; in [3], > 100 µM; in assay [4], 74.6 µM; in assay [5], 37.4 µM; in assay [6], > 100 µM. Besides, the TGI in [7] is 69.3 µM; in [8], > 100 µM; in assay [9] it was > 100 µM; in assay [10] it was > 100 µM.

Regarding `Nc1cc(O)ccc1N=Nc1ccc(-c2nc3ccccc3[nH]2)cc1`, the GI50 is 34 µM in assay [1]; 3.51 µM in assay [2]; > 100 µM in [3]; 72.1 µM in [4]; > 100 µM in [5]; > 100 µM in assay [6]. The GI50 was 13.7 µM in [7], > 100 µM in [8], 53.5 µM in [9] and 30.3 µM in assay [10]. The TGI in [1] is > 100 µM; in assay [2], 82.3 µM; in assay [3] it was > 100 µM; in assay [4], > 100 µM; in assay [5] it was > 100 µM; in [6] it was > 100 µM. The TGI in assay [7] is 49.6 µM; in assay [8], > 100 µM; in [9], > 100 µM; in [10] it was > 100 µM.

Take `CC(C)(C)c1ccc(OC(=O)Nc2ccc(O)c(C(=O)O)c2)cc1`: the TGI in assay [1], in assay [2], in assay [3], in [4], in assay [5] and in [6] was > 100 µM throughout. Also, the TGI in assay [7], in [8], in [9] and in [10] was > 100 µM in each case.

For `Cn1nc(-c2ccc(Cl)cc2)nc2c(=O)n(C)c(=O)nc1-2`, the GI50 in [1] is 1.13 µM; in [2], 1.87 µM; in assay [3], 0.89 µM; in assay [4], 1.35 µM; in assay [5] it was 1.13 µM; in assay [6], 1.33 µM. For the same compound, the GI50 in [7] is 0.275 µM; in assay [8], 1.2 µM; in assay [9], 0.706 µM; in [10], 0.789 µM. In addition, the TGI in [1] worked out at 3.1 µM; in [2] it was 6.61 µM; in assay [3] it was 1.63 µM; in assay [4], 3.51 µM; in assay [5] it was 3.22 µM; in [6], 4.47 µM. For the same compound, the TGI turned out to be 1.2 µM in assay [7], 3.3 µM in assay [8], 1.45 µM in assay [9] and 2.62 µM in assay [10].

For the compound `O=C(O)c1cn(C2CC2)c2cc(N3CCN(C(=O)Nc4nc(-c5ccccc5)cs4)CC3)c(F)cc2c1=O`, the GI50 in assay [1] was 0.894 µM; in [2], 3.59 µM; in [3], 1.05 µM; in assay [4], 0.861 µM; in assay [5], 1.61 µM; in assay [6], 4.82 µM. Moreover, the GI50 was 0.582 µM in assay [7], 2.93 µM in assay [8], 0.774 µM in [9] and 0.474 µM in assay [10]. The TGI in [1] was 7.54 µM; in [2], > 100 µM; in assay [3], 15.8 µM; in [4], 72.1 µM; in assay [5], 11.5 µM; in [6], > 100 µM. The TGI in [7] was 16.5 µM; in assay [8] it was > 100 µM; in assay [9], > 100 µM; in assay [10], 14.1 µM.

Take `Cc1cc2cc3ccc(N(C)C)cc3nc2cc1N`: the GI50 in [1] was 0.423 µM; in [2], 0.321 µM; in [3], 0.437 µM; in assay [4] it was 0.51 µM; in assay [5], 0.438 µM; in assay [6], 2.51 µM. The GI50 in assay [7] is 0.502 µM; in assay [8], 0.904 µM; in [9], 0.411 µM; in assay [10], 0.312 µM. The TGI in assay [1] came out at 5.75 µM; in assay [2] it was 1.35 µM; in assay [3] it was 2.45 µM; in assay [4] it was 3.48 µM; in [5], 9.31 µM; in assay [6] it was 23.4 µM. The TGI was determined as 2.45 µM in assay [7], 4.46 µM in assay [8], 4.54 µM in assay [9] and 1.61 µM in assay [10].

The record behind these values is PubChem BioAssay (NCI).
